Like-named read-outs stand apart in the source and are kept apart here. Where a SMILES comes first, the peptide text is derived from it. The star is where a group is joined. Benzoyl(4-guanidino) = N=C(N)Nc1ccc(C(=O)*)cc1

The subject of one data set is treated animals. Conditions: cited from earlier work.
Another data set in a line: rat plasma. Conditions: 37 °C, up to 300 min.
The next data set can be described thus: human plasma. Conditions: 37 °C, up to 300 min.
For data set [1], the target named is T1, human MCH-R1 (Homo sapiens, UniProt Q99705).
T1 construct: expressed in transfected cells
T1 sequence (Q99705 whole entry): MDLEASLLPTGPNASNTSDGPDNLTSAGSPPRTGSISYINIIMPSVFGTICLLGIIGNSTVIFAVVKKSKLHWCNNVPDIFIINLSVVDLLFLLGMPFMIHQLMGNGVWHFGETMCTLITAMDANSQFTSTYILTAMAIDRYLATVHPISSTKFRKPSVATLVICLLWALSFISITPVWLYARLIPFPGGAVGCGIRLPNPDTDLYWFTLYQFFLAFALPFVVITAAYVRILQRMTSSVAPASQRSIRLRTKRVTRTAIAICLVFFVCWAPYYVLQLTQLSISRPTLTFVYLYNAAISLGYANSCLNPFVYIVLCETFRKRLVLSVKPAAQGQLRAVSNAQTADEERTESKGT
The data set can be described thus: MCH-induced cytosolic Ca2+ ion mobilization, antagonist effect. Format: cell-based. Conditions: antagonism of MCH-induced cytosolic Ca2+ mobilization; read-out: Ki (functionality, antagonism at MCH-R1). The method, then:
The functional assay was run onto cells expressing the hMCH-R1 receptor, as described in Wang et al.. In brief, the cells are suspended in DMEM buffer (Invitrogen), then distributed in microplates at a density of 4.104 cells/well. The fluorescent probe (Fluo4 Direct, Invitrogen) mixed with probenecid in Hanks’ Balanced Salt solution (HBSS) (Invitrogen) complemented with 20 mM HEPES (Invitrogen) (pH 7.4) is then added into each well and equilibrated with the cells for 60 min at 37 °C, then 15 min at 22 °C. Then, the assay plates are positioned in a microplate reader (CellLux, PerkinElmer) which is used for the addition of the test compound, reference agonist or HBSS buffer (basal control), and the measurements of changes in fluorescence intensity, which varies proportionally to the free cytosolic Ca^2+ ion concentration. For stimulated control measurements, MCH at 300 nM is added in separate assay wells. The results are expressed as a percentage of the control response to 300 nM MCH. The standard reference agonist is MCH, which is tested in each experiment at several concentrations to generate a concentration-response curve from which its EC50 value is calculated. For the antagonist effect, the results are expressed as a percentage inhibition of the control response to 30 nM MCH, which was added to all tested wells and controls 5 min after the candidate products.
A general note: Calcium flux is commonly read through the fluorescence of an indicator in the cells.

Data set [2] deals with T1, human MCH-R1. As to the kind of experiment: Binding displacement of [125I]-[Phe13,Tyr19]-MCH at membranes expressing human MCH-R1. The method, then: Stable cell lines were obligatory for all receptor programs. We cloned the human receptor and established the cell line as previously described. In brief, HEK293 (HEK) cells were grown in Dulbecco’s Modified Eagle medium (DMEM) supplemented with 10% fetal calf serum, 2 mM glutamine, 100 IU/mL penicillin and […] streptomycin. They were seeded at 5 × 10^6 cells in T75 cm^2 culture flasks. One day later, they were transfected with […] of the pcDNA3.1 (Invitrogen, Groningen, The Netherlands) containing the human MCH-R1 using lipofectamine (Life Technologies, Cergy Pontoise, France), as previously described. One day later, cells were trypsinized, resuspended in a complete DMEM medium containing […] of geneticin and seeded at different dilutions in 96-well plates which were kept for 2 to 3 weeks in a humidified CO2 incubator. At the end of the selection period, isolated clones were picked up, amplified, and further characterized by cyclic AMP experiments. For each cell line, one positive clone was subcloned before being used for all of the cyclic AMP, [^35S]-GTPγS and receptor binding experiments necessary to characterize them. The stable HEK293 cell line expressing the human MCH-R1 was HEK-hMCH-R1.
Membrane preparations were classically made as previously described. In brief, the HEK-hMCH-R cell line was grown to confluency, harvested in PBS buffer containing 2 mM EDTA and centrifuged at 10,000× g for 5 min (4°C). The resulting pellet was suspended in 20 mM Hepes buffer (pH 7.5), containing 5 mM EGTA and homogenized using a Kinematica polytron. The homogenate was then centrifuged (95,000× g, 30 min, 4 °C) and the resulting pellet was suspended in 50 mM HEPES buffer (pH 7.5), containing 10 mM MgCl2 and 2 mM EGTA. Aliquots of membrane preparations were stored at −80 °C until use. Binding has been described in numerous publications and the test was based on Mac Donald et al.’s description. […] Nonspecific binding is determined in the presence of 0.1 μM MCH. […] The filters are dried and then counted for radioactivity in a scintillation counter (Topcount, Packard) using a scintillation cocktail (Microscint 0, Packard). The results are expressed as percentage inhibition of the control radioligand specific binding. The standard reference compound is MCH, which was tested in each experiment at 8 concentrations to obtain a competition curve from which its IC50 is calculated. The high level of assay robustness and reproducibility of each control monitored over several decades (internal data base, Eurofins) and included in every assay ensure results’ reliability even when performed only twice. […]

On to `COCC1=C(C(=O)OC)[C@H](c2ccc(F)c(F)c2)N(C(=O)NCCCN2CCC(c3cccc(NC(C)=O)c3)CC2)C(=O)N1` [SNAP-7941], for which, in the data set with treated animals, the behavioral concerns result is “some behavioral concerns have been reported”.

`CN(C)c1nc(NC2CCC(NCCc3ccc(Br)cc3OC(F)(F)F)CC2)nc2ccccc12` (stereo not drawn) [ATC0065]: in the data set on treated animals, the behavioral concerns entry is given as “some behavioral concerns have been reported”.

In the case of pGua-[N3-hAla-MLR-βhVal-RP-hPra]-W-OH, the not cleaved entry in “rat plasma” is given as “not metabolized at all, 100% of the initial dose found at 300 (5 h)”; in the data set “human plasma” it was “not metabolized at all, 100% of the initial dose found at 300 (5 h)”.

As for “Gua-N3-hAla-Nle-Leu-Arg-βhVal-Arg-Pro-hPra-Trp”, the not cleaved entry in “rat plasma” was “not metabolized at all, 100% of the initial dose found at 300 (5 h)”; in the data set “human plasma”, “not metabolized at all, 100% of the initial dose found at 300 (5 h)”.

Usually Ki stands for the equilibrium dissociation constant of an inhibitor or competing ligand from its target. Regarding `CSCC[C@H](NC(=O)[C@H](C)NC(=O)c1ccc(NC(=N)N)cc1)C(=O)N[C@@H](CC(C)C)C(=O)N[C@@H](CCCNC(=N)N)C(=O)N[C@H](C(=O)N[C@@H](CCCNC(=N)N)C(=O)N1CCC[C@H]1C(=O)N[C@@H](C)C(=O)N[C@@H](Cc1c[nH]c2ccccc12)C(=O)O)C(C)C` [GPS13670] ({Benzoyl(4-guanidino)}-AMLRVRPAW-OH), the Ki on human MCH-R1 [1] was determined as 30 nM. For the same molecule, at human MCH-R1 [2], the “affinity at the MCH-R1 receptor (in words)” value was “poor binders”.

Take `COc1cc(-n2cnc3cc(-c4ccc(Cl)cc4)sc3c2=O)ccc1OCCN1CCCC1` [GW803430]: the behavioral concerns entry in the data set on treated animals (in vivo) was “some behavioral concerns have been reported”.

(Values after article PMC7957705 (Molecules, 2021).)
